Data on six compounds can be found in patent publication US6984619B1, “Method for protection against tumor metastasis formation” (Arch Development Corporation, priority 1999, dated 2006).

“Also recorded” adds a separate entry of the source.

One test addresses T1, MMP-9 (Homo sapiens, UniProt P14780).
T1 construct: Medium was isolated at the indicated times, centrifuged at 1000 rpm for 5 min to remove debris; endogenous in cells; host or cells: U251 human glioma cells (serum-free conditioned medium)
The test can be described thus: Gelatin zymography of medium from treated U251 glioma cells, MMP-9. In kind it is cell-based. Conditions: for reduction of MMP-9 activity/secretion: 10 mM. As to the method: (§1) U251 Glioma Cells were grown to confluence in 6-well plates. Medium was removed, the cells washed twice with 37° C. PBS, and serum-free medium added. The cells were treated as follows: • Control—24 h, 48 h 72 h • 40 μM SH—24 h, 48 h 72 h (continuous exposure) • 10 ng/ml TNFα—24 h, 48 h, 72 h (continuous exposure). Medium was isolated at the indicated times, centrifuged at 1000 rpm for 5 min to remove debris, and stored at −80° C. until use. Protein was quantitated using the Bradford method. 252 ng of protein was loaded on 10% zymogram (gelatin) gels (Novex, San Diego, Calif.) and electrophoresed at 125 volts for 90 min in Tris-Glycine SDS buffer. After running, the gels were incubated in zymogram renaturing buffer (100 ml) for 30 min at room temperature with gentle agitation. The buffer was removed and fresh zymogram developing buffer (100 ml) added and the gels incubated at 37° C. overnight with gentle agitation. The following day the gels were stained with 0.5% coomassie blue R-250 for 30 min, and destained. Areas of protease activity show up as clear bands. This assay will detect MMP-2 and MMP-9.
(§2) Same protocol as above. Treatment conditions were as follows: • Control—24 h • 4 mM SH—24 h (continuous exposure) • 10 mM L-NAC—24 h (continuous exposure) • 10 mM L-NAC—24 h (continuous exposure) • 10 mM Captopril—24 h (continuous exposure) • 50 mM EDTA—24 h (chelator) • 4 mM SH+50 mM EDTA—24 h • 10 mM L-NAC+50 mM EDTA—24 h • 10 mM D-NAC+50 mM EDTA—24 h • 10 mM Captopril+50 mM EDTA—24 h • 40 μM SH—24 h • 10 ng/ml TNFα—24 h

The subject of another test is MnSOD gene expression. Briefly: MnSOD gene expression in glioma cells (Northern blot). The class given is cell-based, human. The source says: FIG. 6. Effect of Amifostine on MnSOD Expression. Kinetics of manganese superoxide dismutase (MnSOD) gene expression induced in human glioma tumor cells as a function of time by WR1065, the active form of amifostine, are presented for comparison. Also included in the upper right hand corner is a representative Northern blot used to quantitate gene expression. Gene expression was induced over 3-fold as compared to untreated controls.
As previously discussed, manganese superoxide dismutase (MnSOD) has been identified as important anti-oxidant gene whose expression reduces the malignant/metastatic phenotype of cancer cells (Safford et al., 1995). Tumor cells are relatively lower in MnSOD than are normal cells. Increasing MnSOD in tumor cells causes them to loose their ability to be metastatic. As described in FIG. 6, exposure of tumor cells to WR-1065 leads to enhanced gene expression of MnSOD. […] The peak level of MnSOD expression was almost twice that observed in normal human endothelial cells exposed to WR-1065.

The next test concerns the target T2, MMP-2 (Homo sapiens, UniProt P08253).
T2 construct: Medium was isolated at the indicated times, centrifuged at 1000 rpm for 5 min to remove debris; endogenous in cells; host or cells: U251 human glioma cells (serum-free conditioned medium)
T2 sequence (P08253 110-660): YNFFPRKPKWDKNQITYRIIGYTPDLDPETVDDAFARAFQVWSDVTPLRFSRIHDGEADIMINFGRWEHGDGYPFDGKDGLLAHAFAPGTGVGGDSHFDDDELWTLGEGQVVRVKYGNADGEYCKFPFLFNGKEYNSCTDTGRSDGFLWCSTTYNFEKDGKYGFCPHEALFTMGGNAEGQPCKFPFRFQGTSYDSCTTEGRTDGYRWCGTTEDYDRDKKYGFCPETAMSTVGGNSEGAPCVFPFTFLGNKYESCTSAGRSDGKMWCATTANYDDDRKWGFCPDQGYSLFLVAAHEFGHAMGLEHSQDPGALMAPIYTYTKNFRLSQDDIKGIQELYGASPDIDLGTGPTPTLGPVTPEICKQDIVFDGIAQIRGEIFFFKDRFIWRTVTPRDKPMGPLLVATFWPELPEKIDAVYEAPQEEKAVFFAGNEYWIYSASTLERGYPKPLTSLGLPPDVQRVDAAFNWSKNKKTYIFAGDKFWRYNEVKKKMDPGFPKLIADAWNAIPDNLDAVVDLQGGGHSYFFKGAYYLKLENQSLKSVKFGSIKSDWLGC
The test can be described thus: Gelatin zymography of medium from treated U251 glioma cells, MMP-2. The class given is cell-based. Conditions: for inhibition of MMP-2 activity/secretion / reduction of MMP-2 activity/secretion: 24 h; for reduction of MMP-2 activity/secretion: 10 mM. As to the method: as §1, §2

[1] abbreviates: TNFα 10 ng/ml, continuous exposure.

T1 sequence (P14780 94-707): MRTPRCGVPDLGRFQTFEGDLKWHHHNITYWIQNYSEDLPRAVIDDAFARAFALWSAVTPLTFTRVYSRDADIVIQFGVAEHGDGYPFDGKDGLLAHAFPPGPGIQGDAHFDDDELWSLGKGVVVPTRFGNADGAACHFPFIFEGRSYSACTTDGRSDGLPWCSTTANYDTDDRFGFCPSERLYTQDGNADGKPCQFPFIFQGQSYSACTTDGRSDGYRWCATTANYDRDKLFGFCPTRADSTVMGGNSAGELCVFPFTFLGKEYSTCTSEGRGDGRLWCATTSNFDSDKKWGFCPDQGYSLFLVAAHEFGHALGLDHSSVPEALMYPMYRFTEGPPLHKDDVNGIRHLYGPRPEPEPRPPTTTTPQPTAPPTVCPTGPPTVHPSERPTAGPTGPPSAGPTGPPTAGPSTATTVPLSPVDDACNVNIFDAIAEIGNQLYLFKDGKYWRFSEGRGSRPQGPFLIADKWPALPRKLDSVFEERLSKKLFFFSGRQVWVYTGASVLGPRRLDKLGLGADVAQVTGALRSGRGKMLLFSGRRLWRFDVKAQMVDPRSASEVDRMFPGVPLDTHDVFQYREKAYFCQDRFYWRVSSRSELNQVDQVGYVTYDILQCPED

Turning to `NCCCNCCS` [WR-1065, 2-[(aminopropyl)amino]ethanethiol], the “ability to affect MMP-9 activity at 48 h and 72 h” value on MMP-9 (40 μM SH, continuous exposure) is recorded as “lost”. In addition, the “reduction of MMP-9 activity relative to control” value on MMP-9 (40 μM WR-1065 (SH), 24 h) came to 5%. Further, the “inhibition of MMP-9 activity/secretion” value against MMP-9 (4 mM WR-1065 (SH), 24 h) is recorded as “completely inhibiting”; against MMP-9 (4 mM WR-1065 (SH), 24 h, listed as SH), “completely inhibited”. The “peak level of MnSOD expression relative to normal human endothelial cells exposed to WR-1065” value in the test on MnSOD gene expression (U87 glioma cells versus normal human endothelial cells) is reported as “almost twice”. For the same compound, the “MnSOD gene expression during an additional 12 h” value in the test with MnSOD gene expression (human glioma U87 cells, 12 to 24 h) was “remained at that elevated level”. Moreover, in the test with MnSOD gene expression (human glioma U87 cells, after 12 h), the “MnSOD gene expression enhanced” value was found to be 2.5 fold. The “MnSOD gene expression induced as compared to untreated controls” value with MnSOD gene expression (human glioma tumor cells, FIG. 6 legend) is listed as “over 3 fold”. Moreover, at MMP-2 (40 μM SH, continuous exposure), the “ability to reduce MMP-2 secretion at 48 h and 72 h” value was “lost”. Also, the “reduction of MMP-2 activity/secretion relative to control” value on MMP-2 (40 μM WR-1065 (SH), 24 h (b119 prints 45 h)) was found to be 45%. For the same compound, the “MMP-2 activity, of control levels” value on MMP-2 (40 μM, 24 h exposure) was found to be 55%. Further, the “inhibition of MMP-2 activity/secretion” value at MMP-2 (4 mM WR-1065 (SH)) is reported as “completely inhibiting”; against MMP-2 (4 mM WR-1065 (SH), listed as SH), “completely inhibited”.
On to Tumor Necrosis Factor alpha [TNFα], for which the “MMP-9 activity at 48 h and 72 h” value at MMP-9 (setting [1]) was “continued to cause enhanced activity”. At MMP-2 (setting [1]), the “suppression of MMP-2 secretion at 48 h and 72 h” value was “still able to suppress”.
For the compound `C[C@H](CS)C(=O)N1CCC[C@H]1C(=O)O` [Captopril], on MMP-9 (24 h), the “reduction of MMP-9 activity/secretion” value was “completely inhibited”. Besides, the “reduction of MMP-2 activity/secretion” value at MMP-2 is given as “completely inhibited”.
Consider `CC(=O)N[C@H](CS)C(=O)O` [D-NAC], for which the “reduction of MMP-9 activity/secretion” value on MMP-9 (24 h) came to 85%. In addition, the “reduction of MMP-2 activity/secretion” value on MMP-2 turned out to be 74%.
`O=C(O)CN(CCN(CC(=O)O)CC(=O)O)CC(=O)O` [EDTA]: the “inhibition of MMP-9 activity/secretion” value at MMP-9 (50 mM EDTA, 24 h) is “completely inhibiting; also recorded: completely inhibited; also recorded: completely blocked”. The “inhibition of MMP-2 activity/secretion” value against MMP-2 (50 mM EDTA) is reported as “completely inhibiting; also recorded: completely inhibited; also recorded: completely blocked”.
For `CC(=O)N[C@@H](CS)C(=O)O` [L-NAC, N-acetyl-L-cysteine], on MMP-9 (24 h), the “reduction of MMP-9 activity/secretion” value was determined as 73%. Besides, the “reduction of MMP-2 activity/secretion” value on MMP-2 is 69%.
